Measured values taken from article PMC5513091, “A novel Alzheimer’s disease drug candidate targeting inflammation and fatty acid metabolism” (Alzheimer's Research & Therapy, 2017).

System: plasma metabolites
Experiment: Metabolomic analysis of plasma
Format: in vivo, mice
Conditions: AD mice fed CAD-31 200 ppm 3 months vs AD
Procedure: Metabolomic analyses were conducted at Metabolon (Durham, NC, USA) as described previously. For statistical analyses and data display, any missing values were assumed to be below the limits of detection and imputed with the compound minimum (minimum value imputation). An estimate of the FDR (Q value) was calculated to take into account the multiple comparisons that normally occur in metabolomics-based studies, with Q < 0.05 used as an indication of high confidence in a result. The MetaboAnalyst tool was used to generate heat maps.

## Cc1ccc(N(/N=C/c2cccc(OC(F)(F)F)c2)C(=O)C(F)(F)F)c(C)c1 [CAD-31]
  1,2-dipalmitoyl-GPC (16:0/16:0) Fold Change AD+31/AD: 1.12
  1-arachidonoyl-GPC (20:4n6)* Fold Change AD+31/AD: 1.17
  1-myristoylglycerol (14:0) Fold Change AD+31/AD: 0.94
  1-oleoylglycerol (18:1) Fold Change AD+31/AD: 1.17
  1-palmitoyl-2-arachidonoyl-GPC (16:0/20:4n6) Fold Change AD+31/AD: 1.19
  1-palmitoyl-2-stearoyl-GPC (16:0/18:0) Fold Change AD+31/AD: 1.23
  1-stearoyl-GPE (18:0) Fold Change AD+31/AD: 1.22
  2-palmitoylglycerol (16:0) Fold Change AD+31/AD: 1.22
  3-acetylphenol sulfate Fold Change AD+31/AD: 0.59
  3-ethylphenylsulfate Fold Change AD+31/AD: 2.39
  3-hydroxy-3-methylglutarate Fold Change AD+31/AD: 1.53
  3-hydroxybutyrate (BHBA) Fold Change AD+31/AD: 1.21
  3-hydroxypyridine sulfate Fold Change AD+31/AD: 1.07
  3-indoxyl sulfate Fold Change AD+31/AD: 1.15
  4-hydroxyhippurate Fold Change AD+31/AD: 0.73
  4-hydroxyphenylpyruvate Fold Change AD+31/AD: 1.05
  5-hydroxyindoleacetate Fold Change AD+31/AD: 1.01
  5-oxoproline Fold Change AD+31/AD: 1.02
  7-ketodeoxycholate Fold Change AD+31/AD: 0.18
  9,10-DiHOME Fold Change AD+31/AD: 0.99
  10-heptadecenoate (17:1n7) Fold Change AD+31/AD: 0.84
  10-nonadecenoate (19:1n9) Fold Change AD+31/AD: 0.87
  10-undecenoate (11:1n1) Fold Change AD+31/AD: 0.41
  15-methylpalmitate Fold Change AD+31/AD: 0.68
  17-methylstearate Fold Change AD+31/AD: 0.84
  N2-acetyllysine Fold Change AD+31/AD: 1.12
  N-acetyl-3-methylhistidine* Fold Change AD+31/AD: 0.86
  N-acetylmethionine Fold Change AD+31/AD: 1.14
  N-acetylphenylalanine Fold Change AD+31/AD: 1.1
  N-acetylserine Fold Change AD+31/AD: 1.11
  N-carbamoylaspartate Fold Change AD+31/AD: 1.97
  N-delta-acetylornithine Fold Change AD+31/AD: 1.22
  N-palmitoyl-sphinganine (d18:0/16:0) Fold Change AD+31/AD: 1.49
  N-stearoyl-sphingosine (d18:1/18:0)* Fold Change AD+31/AD: 1.5
  acetylcarnitine Fold Change AD+31/AD: 0.97
  alpha-tocopherol Fold Change AD+31/AD: 1.29
  arabonate/xylonate Fold Change AD+31/AD: 1.47
  asparagine Fold Change AD+31/AD: 0.97
  beta-muricholate Fold Change AD+31/AD: 0.41
  caffeic acid sulfate Fold Change AD+31/AD: 1.19
  carnosine Fold Change AD+31/AD: 0.68
  chenodeoxycholate Fold Change AD+31/AD: 0.26
  choline phosphate Fold Change AD+31/AD: 1.11
  creatine Fold Change AD+31/AD: 1.02
  dihydroorotate Fold Change AD+31/AD: 1.19
  dopamine sulfate (2) Fold Change AD+31/AD: 2.01
  equol glucuronide Fold Change AD+31/AD: 0.22
  ergothioneine Fold Change AD+31/AD: 0.44
  erythritol Fold Change AD+31/AD: 1.1
  erythronate* Fold Change AD+31/AD: 1.14
  gamma-glutamylglutamate Fold Change AD+31/AD: 0.97
  gamma-glutamylglutamine Fold Change AD+31/AD: 0.99
  gamma-glutamylleucine Fold Change AD+31/AD: 1.02
  gamma-glutamylmethionine Fold Change AD+31/AD: 1.04
  gamma-glutamylphenylalanine Fold Change AD+31/AD: 0.97
  gamma-glutamylthreonine Fold Change AD+31/AD: 1.03
  gamma-glutamyltryptophan Fold Change AD+31/AD: 0.78
  gamma-glutamyltyrosine Fold Change AD+31/AD: 0.92
  glucuronate Fold Change AD+31/AD: 1.18
  glutamate Fold Change AD+31/AD: 0.99
  glutathione, oxidized (GSSG) Fold Change AD+31/AD: 1.46
  glycosyl-N-palmitoyl-sphingosine (d18:1/16:0) Fold Change AD+31/AD: 1.29
  glycosyl-N-stearoyl-sphingosine (d18:1/18:0) Fold Change AD+31/AD: 1.42
  gulonate* Fold Change AD+31/AD: 1.59
  hexanoylglycine Fold Change AD+31/AD: 1.03
  indoleacetylglycine Fold Change AD+31/AD: 0.89
  isobutyrylcarnitine Fold Change AD+31/AD: 2.26
  linoleate (18:2n6) Fold Change AD+31/AD: 0.98
  margarate (17:0) Fold Change AD+31/AD: 0.9
  methionine sulfoxide Fold Change AD+31/AD: 1.26
  methylmalonate (MMA) Fold Change AD+31/AD: 1.15
  o-cresol sulfate Fold Change AD+31/AD: 1.63
  oleoylcarnitine Fold Change AD+31/AD: 0.94
  palmitoleoylcarnitine* Fold Change AD+31/AD: 0.97
  palmitoyl dihydrosphingomyelin (d18:0/16:0)* Fold Change AD+31/AD: 1.32
  palmitoyl sphingomyelin (d18:1/16:0) Fold Change AD+31/AD: 1.22
  palmitoyl-palmitoyl-glycerol (16:0/16:0) [1]* Fold Change AD+31/AD: 1.17
  pentadecanoate (15:0) Fold Change AD+31/AD: 0.95
  phenol sulfate Fold Change AD+31/AD: 1.03
  phenylpropionylglycine Fold Change AD+31/AD: 2.89
  phosphoethanolamine Fold Change AD+31/AD: 1.05
  pyridoxal Fold Change AD+31/AD: 1.22
  pyridoxate Fold Change AD+31/AD: 1.49
  pyruvate Fold Change AD+31/AD: 1.04
  ribonate Fold Change AD+31/AD: 1.53
  sphinganine-1-phosphate Fold Change AD+31/AD: 1.45
  sphingosine Fold Change AD+31/AD: 1.35
  stearidonate (18:4n3) Fold Change AD+31/AD: 0.87
  suberate (octanedioate) Fold Change AD+31/AD: 1.33
  sucrose Fold Change AD+31/AD: 2.83
  tartronate (hydroxymalonate) Fold Change AD+31/AD: 0.99
  taurine Fold Change AD+31/AD: 0.91
  threonine Fold Change AD+31/AD: 1.08
  tryptophan Fold Change AD+31/AD: 0.91
  ursodeoxycholate Fold Change AD+31/AD: 0.23
